Measured values as given in patent US20190152946A1, “Novel Compounds” (GlaxoSmithKline Intellectual Property Development Limited, priority 2016, published 2019).

Experiments:
Assay type in all cases: cell-based
AURKA = molecular target: T1, AURKA (Homo sapiens, UniProt O14965); test: Expression proteomics in THP-1 cells, AURKA level; settings: AURKA protein log2 fold change, 24 h, 1.0 μM
T1 construct: endogenous in cells; host or cells: THP-1
T1 sequence (O14965 1-403): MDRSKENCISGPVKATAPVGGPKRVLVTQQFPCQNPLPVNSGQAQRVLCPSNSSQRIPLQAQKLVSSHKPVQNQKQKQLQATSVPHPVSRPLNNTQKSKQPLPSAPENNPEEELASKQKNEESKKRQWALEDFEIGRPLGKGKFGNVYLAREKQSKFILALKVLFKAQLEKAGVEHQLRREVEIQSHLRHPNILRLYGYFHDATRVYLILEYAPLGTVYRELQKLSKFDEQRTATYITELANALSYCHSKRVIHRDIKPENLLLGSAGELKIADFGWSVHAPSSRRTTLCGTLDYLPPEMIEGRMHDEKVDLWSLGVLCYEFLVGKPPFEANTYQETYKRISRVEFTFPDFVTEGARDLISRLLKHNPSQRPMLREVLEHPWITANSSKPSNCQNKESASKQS
Method: (§1) THP-1 cells were seeded at a concentration of 3×10^6 cells in T175 flasks with 60 mL growth medium (RPM11640+10% FBS). […] of a 10× compound solution prepared in growth medium (DMSO), IAP PROTAC) was added and the cells were treated for the indicated time points (6 or 24 h) at 37° C., 5% CO2. For harvesting the cells were collected into falcon tubes on ice, centrifuged and washed twice in cold PBS (Life technologies). After the last washing step the supernatant was removed and the pellets were snap-frozen in liquid N2 and stored at −80° C. and lysed in 2% SDS for 3 min at 95° C. in a thermomixer (Thermo Fisher Scientific), followed by digestion of DNA with Benzonase at 37° C. for 1.5 h. Lysate was cleared by centrifugation an protein concentration in supernatant was determined by BCA assay.
(§2) Leukemia 25, 89-100 (2011).
(§3) Samples were dried in vacuo and resuspended in 0.05% trifluoroacetic acid in water. […]
(§4) Reporter ion intensities were read from raw data and multiplied with ion accumulation times (the unit is milliseconds) so as to yield a measure proportional to the number of ions;
(§5) Nat Biotech 29, 255-265 (2011). this measure is referred to as ion area Savitski, M. M. et al. Delayed Fragmentation and Optimized Isolation Width Settings for Improvement of Protein Identification and Accuracy of Isobaric Mass Tag Quantification on Orbitrap-Type Mass Spectrometers. […]

MAPK9 = molecular target: T2, MAPK9 (Homo sapiens, UniProt P45984); test: Expression proteomics in THP-1 cells, MAPK9 level; settings: MAPK9 protein log2 fold change, 24 h, 1.0 μM
T2 construct: endogenous in cells; host or cells: THP-1
Method: as §1, §2, §3, §4, §5

PTK2 = molecular target: T3, PTK2 (Homo sapiens, UniProt Q05397); test: Expression proteomics in THP-1 cells, PTK2 level; settings: PTK2 protein log2 fold change, 24 h, 1.0 μM
T3 construct: endogenous in cells; host or cells: THP-1
Method: as §1, §2, §3, §4, §5

PTK2B = molecular target: T4, PTK2B (Homo sapiens, UniProt Q14289); test: Expression proteomics in THP-1 cells, PTK2B level; settings: PTK2B protein log2 fold change, 24 h, 1.0 μM
T4 construct: endogenous in cells; host or cells: THP-1
Method: as §1, §2, §3, §4, §5

T4 sequence (Q14289 whole entry): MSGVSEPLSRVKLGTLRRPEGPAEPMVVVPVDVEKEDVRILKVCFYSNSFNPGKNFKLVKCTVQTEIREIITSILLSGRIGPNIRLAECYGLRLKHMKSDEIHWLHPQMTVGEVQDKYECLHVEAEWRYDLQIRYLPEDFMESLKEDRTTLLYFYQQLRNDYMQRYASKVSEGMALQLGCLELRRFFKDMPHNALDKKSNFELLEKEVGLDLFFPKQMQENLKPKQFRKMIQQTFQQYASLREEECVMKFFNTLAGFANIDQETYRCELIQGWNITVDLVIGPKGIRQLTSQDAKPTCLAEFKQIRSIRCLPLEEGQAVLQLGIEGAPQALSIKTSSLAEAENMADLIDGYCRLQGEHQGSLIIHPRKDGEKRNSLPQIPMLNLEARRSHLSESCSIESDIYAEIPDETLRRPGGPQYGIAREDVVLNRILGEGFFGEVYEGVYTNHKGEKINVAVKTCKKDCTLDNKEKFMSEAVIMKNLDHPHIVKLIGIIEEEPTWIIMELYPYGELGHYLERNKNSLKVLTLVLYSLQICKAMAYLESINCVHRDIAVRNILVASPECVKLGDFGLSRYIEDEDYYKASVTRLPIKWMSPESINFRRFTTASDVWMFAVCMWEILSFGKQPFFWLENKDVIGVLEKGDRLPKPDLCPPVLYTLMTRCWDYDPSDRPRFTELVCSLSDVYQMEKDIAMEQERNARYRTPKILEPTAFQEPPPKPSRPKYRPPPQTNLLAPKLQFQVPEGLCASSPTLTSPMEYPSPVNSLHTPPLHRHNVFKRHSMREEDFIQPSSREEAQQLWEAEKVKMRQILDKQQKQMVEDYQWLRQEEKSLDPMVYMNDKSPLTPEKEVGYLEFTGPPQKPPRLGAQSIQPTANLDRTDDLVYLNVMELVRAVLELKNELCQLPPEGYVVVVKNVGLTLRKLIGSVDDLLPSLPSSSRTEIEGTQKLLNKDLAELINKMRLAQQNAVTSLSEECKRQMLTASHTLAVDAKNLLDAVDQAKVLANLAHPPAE
T2 sequence (P45984 whole entry): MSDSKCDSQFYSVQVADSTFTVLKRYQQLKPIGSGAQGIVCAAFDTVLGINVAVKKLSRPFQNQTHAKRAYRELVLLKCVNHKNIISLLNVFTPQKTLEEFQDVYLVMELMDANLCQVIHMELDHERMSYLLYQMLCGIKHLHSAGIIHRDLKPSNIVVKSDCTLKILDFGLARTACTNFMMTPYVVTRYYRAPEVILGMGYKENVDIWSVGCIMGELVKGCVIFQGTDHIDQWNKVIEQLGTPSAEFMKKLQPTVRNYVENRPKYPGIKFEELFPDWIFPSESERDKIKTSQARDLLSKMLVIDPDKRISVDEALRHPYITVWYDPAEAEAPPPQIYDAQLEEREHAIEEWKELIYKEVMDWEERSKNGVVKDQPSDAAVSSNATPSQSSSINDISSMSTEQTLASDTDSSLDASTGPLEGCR
T3 sequence (Q05397 whole entry): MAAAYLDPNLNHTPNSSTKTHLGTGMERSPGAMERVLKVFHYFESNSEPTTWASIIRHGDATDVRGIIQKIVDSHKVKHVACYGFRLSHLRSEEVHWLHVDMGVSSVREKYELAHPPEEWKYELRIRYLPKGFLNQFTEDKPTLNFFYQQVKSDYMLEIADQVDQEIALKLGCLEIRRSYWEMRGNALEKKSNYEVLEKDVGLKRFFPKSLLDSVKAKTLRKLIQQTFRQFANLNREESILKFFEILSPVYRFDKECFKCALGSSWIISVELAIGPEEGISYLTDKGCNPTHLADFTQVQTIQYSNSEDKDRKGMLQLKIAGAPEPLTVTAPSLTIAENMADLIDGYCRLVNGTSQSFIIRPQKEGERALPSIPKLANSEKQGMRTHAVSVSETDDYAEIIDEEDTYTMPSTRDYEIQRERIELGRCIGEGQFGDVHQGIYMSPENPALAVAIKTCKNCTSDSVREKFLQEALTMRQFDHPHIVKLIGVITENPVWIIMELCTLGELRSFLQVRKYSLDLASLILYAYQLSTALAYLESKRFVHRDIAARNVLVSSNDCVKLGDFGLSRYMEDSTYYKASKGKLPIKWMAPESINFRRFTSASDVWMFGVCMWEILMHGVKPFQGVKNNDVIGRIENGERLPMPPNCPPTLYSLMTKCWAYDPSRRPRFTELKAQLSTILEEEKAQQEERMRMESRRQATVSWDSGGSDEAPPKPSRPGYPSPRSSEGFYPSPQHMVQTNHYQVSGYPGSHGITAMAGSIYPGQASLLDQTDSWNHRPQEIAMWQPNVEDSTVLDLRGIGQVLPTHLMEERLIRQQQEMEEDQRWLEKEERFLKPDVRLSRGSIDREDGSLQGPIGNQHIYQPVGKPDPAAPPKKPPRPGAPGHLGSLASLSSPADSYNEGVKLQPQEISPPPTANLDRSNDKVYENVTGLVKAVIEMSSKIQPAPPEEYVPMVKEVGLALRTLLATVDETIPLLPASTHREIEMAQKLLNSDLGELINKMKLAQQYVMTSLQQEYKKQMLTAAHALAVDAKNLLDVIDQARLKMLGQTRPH

CNC(=O)c1ccccc1Nc1nc(Nc2ccc(N3CCN(CCOCCOCCOCCOc4ccc5c(c4)CN(C(=O)[C@@H](NC(=O)[C@H](C)NC)C(C)(C)C)[C@H](C(=O)N[C@@H]4CCCc6ccccc64)C5)CC3)cc2)ncc1Cl [IAP, (S)-7-(2-(2-(2-(2-(4-(4-((5-Chloro-4-((2-(methylcarbamoyl)phenyl)amino)pyrimidin-2-yl)amino)phenyl)piperazin-1-yl)ethoxy)ethoxy)ethoxy)ethoxy)-2-((S)-3,3-dimethyl-2-((S)-2-(methylamino)propanamido)butanoyl)-N-((R)-1,2,3,4-tetrahydronaphthalen-1-yl)-1,2,3,4-tetrahydroisoquinoline-3-carboxamide]
log2fc_IAP_24 h_1.0 μM_n1 (AURKA; replicate n1): −1.81 | log2fc_IAP_24 h_1.0 μM_n2 (AURKA; replicate n2): −1.42 | log2fc_IAP_24 h_1.0 μM_n1 (MAPK9; replicate n1): −1.22 | log2fc_IAP_24 h_1.0 μM_n2 (MAPK9; replicate n2): −1.31 | log2fc_IAP_24 h_1.0 μM_n1 (PTK2; replicate n1): −0.90 | log2fc_IAP_24 h_1.0 μM_n2 (PTK2; replicate n2): −1.00 | log2fc_IAP_24 h_1.0 μM_n1 (PTK2B; replicate n1): −1.78 | log2fc_IAP_24 h_1.0 μM_n2 (PTK2B; replicate n2): −2.06
